15 compounds from patent US20210269451A1, “PYRIDINYL HETEROCYCLYL COMPOUNDS FOR THE TREATMENT OF AUTOIMMUNE DISEASE” (Hoffmann-La Roche Inc., priority 2018, published 2021) can be followed below.

Each structure is given as a SMILES string. Bounds are passed on as bounds.

The target in the assay is T1, hTLR9 (Homo sapiens, UniProt Q9NR96).
T1 sequence (Q9NR96 26-1032): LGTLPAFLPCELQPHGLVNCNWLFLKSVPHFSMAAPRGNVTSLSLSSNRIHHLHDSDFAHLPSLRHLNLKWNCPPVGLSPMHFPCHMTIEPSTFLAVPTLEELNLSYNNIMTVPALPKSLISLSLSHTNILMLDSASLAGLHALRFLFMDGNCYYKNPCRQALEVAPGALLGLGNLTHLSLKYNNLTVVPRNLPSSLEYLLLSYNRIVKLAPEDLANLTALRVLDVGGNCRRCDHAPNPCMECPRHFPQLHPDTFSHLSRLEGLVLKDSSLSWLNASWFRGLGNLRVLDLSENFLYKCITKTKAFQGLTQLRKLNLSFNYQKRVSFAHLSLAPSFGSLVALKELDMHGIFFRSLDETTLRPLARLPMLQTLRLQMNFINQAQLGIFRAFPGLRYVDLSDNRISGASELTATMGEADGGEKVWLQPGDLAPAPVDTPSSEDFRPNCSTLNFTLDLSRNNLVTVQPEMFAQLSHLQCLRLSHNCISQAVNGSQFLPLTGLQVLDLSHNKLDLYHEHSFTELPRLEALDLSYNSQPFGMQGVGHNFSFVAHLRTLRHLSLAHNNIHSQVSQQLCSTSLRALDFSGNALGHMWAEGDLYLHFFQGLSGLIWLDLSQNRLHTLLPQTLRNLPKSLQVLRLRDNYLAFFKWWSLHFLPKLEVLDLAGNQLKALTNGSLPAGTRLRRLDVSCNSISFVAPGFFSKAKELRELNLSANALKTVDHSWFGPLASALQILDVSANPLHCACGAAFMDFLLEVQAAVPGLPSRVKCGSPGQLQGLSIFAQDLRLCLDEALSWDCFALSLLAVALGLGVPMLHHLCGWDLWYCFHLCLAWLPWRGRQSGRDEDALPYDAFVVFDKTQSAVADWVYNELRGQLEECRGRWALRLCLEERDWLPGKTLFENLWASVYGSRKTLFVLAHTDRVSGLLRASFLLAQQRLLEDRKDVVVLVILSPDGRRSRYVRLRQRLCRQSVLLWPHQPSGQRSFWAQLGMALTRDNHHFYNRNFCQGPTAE
The experiment in a line: HEK293-Blue-hTLR-9 cells assay. The assay is classed as cell-based. On the set-up: host or cells: HEK293-Blue-hTLR-9 (HEK293). Particulars: HEK293-Blue-hTLR9 cells, ODN2006 stimulation, 20 hrs, SEAP reporter; read-out: HEK/hTLR9 IC50. The protocol:
The following tests were carried out in order to determine the activity of the compounds of formula (I) and (Ia) in HEK293-Blue-hTLR-7/8/9 cells assay.
HEK293-Blue-hTLR-9 cells assay:
A stable HEK293-Blue-hTLR-9 cell line was purchased from InvivoGen (Cat. #: hkb-htlr9, San Diego, Calif., USA). These cells were originally designed for studying the stimulation of human TLR9 by monitoring the activation of NE-KB. A SEAP (secreted embryonic alkaline phosphatase) reporter gene was placed under the control of the IFN-β minimal promoter fused to five NE-κB and AP-1-binding sites. The SEAP was induced by activating NE-κB and AP-1 via stimulating HEK-Blue hTLR9 cells with TLR9 ligands. Therefore the reporter expression was declined by TLR9 antagonist under the stimulation of a ligand, such as ODN2006 (Cat. #: tlrl-2006-1, Invivogen, San Diego, Calif., USA), for incubation of 20 hrs. The cell culture supernatant SEAP reporter activity was determined using QUANTI-Blue™ kit (Cat. #: rep-qb1, Invivogen, San Diego, Calif., USA) at a wavelength of 640 nm, a detection medium that turns purple or blue in the presence of alkaline phosphatase.
HEK293-Blue-hTLR9 cells were incubated at a density of 250,000˜450,000 cells/mL in a volume of 170 μL in a 96-well plate in Dulbecco's Modified Eagle's medium (DMEM) containing 4.5 g/L glucose, 50 U/mL penicillin, […], […], 2 mM L-glutamine, 10% (v/v) heat-inactivated fetal bovine serum with addition of 20 μL test compound in a serial dilution in the presence of final DMSO at 1% and 10 μL of 20 uM ODN2006 in above DMEM, perform incubation under 37° C. in a CO2 incubator for 20 hrs. Then 20 μL of the supernatant from each well was incubated with 180 μL Quanti-blue substrate solution at 37° C. for 2 h and the absorbance was read at 620˜655 nm using a spectrophotometer. The signaling pathway that TLR9 activation leads to downstream NE-κB activation has been widely accepted, and therefore similar reporter assay was modified for evaluating TLR9 antagonist.

With `Cc1cc(N2CCOC3CN(CC4CN(c5ccc(C#N)c6ncccc56)CC(C)O4)CC32)cc(C)n1` (single isomer, unassigned) [Example 17A], the IC50 was 154 nM.
On to `Cc1cc(N2CCN(C[C@H]3CN(c4ccc(C#N)c5ncccc45)C[C@@H](C)O3)[C@@H](C)C2)cc(CO)n1` [Example 4A], for which the IC50 came to 148 nM.
For `Cc1cc(N2CCN(C[C@H]3CN(c4ccc(C#N)c5ncccc45)C[C@@H](C)O3)[C@H](C)C2)cc(CO)n1` [Example 4B], the IC50 came to 145 nM.
The figure for `Cc1cc(N2CCC23CN(C[C@H]2CN(c4ccc(C#N)c5ncccc45)C[C@@H](C)O2)C3)cc(C)n1` [Example 8] is < 32 nM; for `C[C@@H]1CN(c2ccc(C#N)c3ncccc23)C[C@H](CN2CCN(c3ccnc(N)c3)CC2)O1` [Example 19, 5-[(2S,6R)-2-[[4-(2-amino-4-pyridyl)piperazin-1-yl]methyl]-6-methyl-morpholin-4-yl]quinoline-8-carbonitrile] it is 62 nM; for `C[C@@H]1CN(c2ccc(C#N)c3ncccc23)C[C@H](CNC2CCN(c3ccnc(N)c3)CC2)O1` [Example 20, 5-[(2S,6R)-2-[[[1-(2-amino-4-pyridyl)-4-piperidyl]amino]methyl]-6-methyl-morpholin-4-yl]quinoline-8-carbonitrile] it is 36 nM.
The figure for `Cc1cc(N2CCC(NC[C@H]3CN(c4ccc(C#N)c5ncccc45)C[C@@H](C)O3)CC2)cc(CO)n1` [Example 23] is < 32 nM.
To `Cc1cc(N2CC[C@@H](NC[C@H]3CN(c4ccc(C#N)c5ncccc45)C[C@@H](C)O3)C2)cc(CO)n1` [Example 28] belongs 57 nM; to `Cc1cc(N2CC[C@H](NC[C@H]3CN(c4ccc(C#N)c5ncccc45)C[C@@H](C)O3)C2)cc(CO)n1` [Example 29], 59 nM; to `Cc1cc(N2CC[C@H](F)[C@H](NC[C@H]3CN(c4ccc(C#N)c5ncccc45)C[C@@H](C)O3)C2)cc(CO)n1` [Example 33], 122 nM.
As for `Cc1cc(N2CC[C@@H](F)[C@H](NC[C@H]3CN(c4ccc(C#N)c5ncccc45)C[C@@H](C)O3)C2)cc(CO)n1` [Example 34], the IC50 turned out to be 155 nM.
Take `Cc1cc(N2CC(NC[C@H]3CN(c4ccc(C#N)c5ncccc45)C[C@@H](C)O3)CC(F)(F)C2)cc(CO)n1` (stereo partly drawn) [Example 36]: the IC50 is 215 nM.
The figure for `Cc1cc(N2CC(N(C)C[C@H]3CN(c4ccc(C#N)c5ncccc45)C[C@@H](C)O3)C2)cc(CO)n1` [Example 37] is 160 nM.
Take `C[C@@H]1CN(c2ccc(C#N)c3ncccc23)C[C@H](CN2CC3(C2)CN(c2ccnc(C(C)(C)O)c2)C3)O1` [Example 48, 5-[(2S,6R)-2[[2-[2-(1-hydroxy-1-methyl-ethyl)-4-pyridyl]-2,6-diazaspiro[3.3]heptan-6-yl]methyl]-6-methyl-morpholin-4-yl]quinoline-8-carbonitrile]: the IC50 was 148 nM.
The figure for `C[C@@H]1CN(c2ccc(C#N)c3ncccc23)C[C@H](CN2CC3(C2)CN(c2ccnc(C4CC4)c2)C3)O1` [Example 49, 5-[(2S,6R)-2[[2-(2-cyclopropyl-4-pyridyl)-2,6-diazaspiro[3.3]heptan-6-yl]methyl]-6-methyl-morpholin-4-yl]quinoline-8-carbonitrile] is 34 nM.
